The source of these data is ChEMBL document CHEMBL1149412, “Novel human lipoxygenase inhibitors discovered using virtual screening with homology models” (J Med Chem, 2006).

For orientation: logP means the decadic logarithm of the partition coefficient of the neutral form, usually between octanol and water.

The data set is described as follows: Partition coefficient of the compound, log P. It is filed as physicochemical. As to conditions: octanol/water.
`Cc1cccc(C(=N)NOC(=O)c2ccc(C)cc2Cl)c1` registered a logP of 5.42.
Next, `Nc1sc2c(c1C(=O)Nc1cccc(Cl)c1)CCCC2`: 4.64; `CCc1cc(-c2n[nH]cc2Oc2ccccc2)c(O)cc1O`: 3.93.
